From ChEMBL document CHEMBL1157978, “In vivo wound-healing activity of oleanolic acid derived from the acid hydrolysis of Anredera diffusa” (2006)

Tests used:
Format in all cases: functional
Mus musculus [1] = experiment: Cicatrizant activity against mouse measured by wound breaking strength at 50 mg/ml administered every 12 hrs measured after 48 hrs relative to control
Mus musculus [2] = experiment: Cicatrizant activity against mouse assessed as wound breaking strength per gram of body weight administered every 12 hrs measured after 48 hrs relative to control
Mus musculus [3] = experiment: Cicatrizant activity against mouse measured by wound breaking strength at 12.5 mg/ml administered every 12 hrs measured after 48 hrs relative to control
Mus musculus [4] = experiment: Cicatrizant activity against mouse measured by wound breaking strength at 30 ug/g administered every 12 hrs measured after 48 hrs relative to control
Mus musculus [5] = experiment: Cicatrizant activity against mouse measured by wound breaking strength at 40 ug/g administered every 12 hrs measured after 48 hrs relative to control
Mus musculus [6] = experiment: Cicatrizant activity against mouse measured by wound breaking strength at 50 ug/g administered every 12 hrs measured after 48 hrs relative to control
Mus musculus [7] = experiment: Cicatrizant activity against mouse measured by wound breaking strength at 60 ug/g administered every 12 hrs measured after 48 hrs relative to control

Structure (SMILES)	Activity (Mus musculus [1]) [%]	ED50 (Mus musculus [2]) [µg]	Activity (Mus musculus [3]) [%]	Activity (Mus musculus [4]) [%]	Activity (Mus musculus [5]) [%]	Activity (Mus musculus [6]) [%]	Activity (Mus musculus [7]) [%]
CC(C)=CCC[C@@](C)(O)[C@@H]1CC=C(C)CC1	17.6	155					
CC1(C)CC[C@]2(C(=O)O)CC[C@]3(C)C(=CC[C@@H]4[C@@]5(C)CC[C@H](O)C(C)(C)[C@@H]5CC[C@]43C)[C@@H]2C1 [OLEANOLIC_ACID]			42.9	25.4	39.3	30.9	26.2
